Converted amounts (≈) assume the structure as drawn. “Also recorded” adds a separate entry of the source.
Legend:
[1] = system: C. metapsilosis MUM 15.12; experiment: MIC, CLSI M27 broth microdilution; format: cell-based, Candida metapsilosis; conditions: Lodderomyces metapsilosis, MUM15.12; C. metapsilosis MUM 17.13 (Table 3); EOs and terpenes; 24 h; top concentration 256 µg/mL; read-out: GM MIC
From the text: (§1) The fungal strains used in this study were C. albicans ATCC 10231, C. albicans ATCC 64550, C. parapsilosis ATCC 22019, C. tropicalis ATCC 750, C. tropicalis ATCC 200956 (resistant to azoles and AMB), C. glabrata LMDM 34 (resistant to echinocandins), C. metapsilosis MUM 15.12, C. orthopsilosis MUM 17.13, C. lusitaniae MUM 17.08, C. krusei ATCC 6258 (Issatchenkia orientalis ATCC 6258), and C. auris CDC B11903. Additionally, nine clinical isolates were included: C. parapsilosis Synlab 406 (FLC-resistant) and eight C. auris isolates identified by MALDI-TOF MS (Bruker Daltonics, Bremen, Germany) according to Zhao et al.. These yeasts were cultured on Sabouraud Dextrose Agar (SDA; Sigma-Aldrich, St. Louis, MO, USA) for 24 h at 35 °C.
(§2) Antifungal susceptibility testing was performed according to Clinical and Laboratory Standards Institute M27, 4th Edition (CLSI standard M27, 4th Edition). Some modifications were applied for evaluation of the antifungal activity of EOs and terpenes. Initially, a screening was carried out to determine the antifungal activity of the EOs and of commercial terpenes. Stock concentrations of EOs and terpenes were prepared at 512 µg/mL and an inoculum of 2.5 × 10^3 CFU/mL of each yeast was prepared in RPMI 1640-MOPS (Sigma- Aldrich St. Louis, MO, USA). Thereafter, 100 µL of each stock solution of EOs or terpenes was dispensed in 96-well microdilution plates (Corning®, Costar®, NY, USA) and 100 µL of each yeast inoculum was added. […] Microdilution plates were incubated at 35 °C and, after 24 h, the presence or absence of growth was visually checked using a manual mirror viewer and then compared with the amount of growth in the control (no EO or terpene). Compounds able to inhibit yeast growth were tested to determine the minimal inhibitory concentration (MIC) as follows: 100 µL of 10 two-fold dilutions of the EOs or commercial terpenes was dispensed in 96-well microplates and the yeast inoculum was added. Final concentrations of the EOs or terpenes ranged from 0.5 µg/mL to 256 µg/mL. Microdilution plates were incubated at 35 °C for 24 h. MICs were visually determined at the lowest concentration that produced visual inhibition compared to the growth control. The assays were performed at least three times in duplicate on different days. The results were expressed as geometric means (GM) and ranges. As an antifungal susceptibility testing control, the activity of ITC and AMB against the reference strains C. krusei ATCC 6258 and C. parapsilosis ATCC 22019 was evaluated in all experiments following the CLSI standard M27, 4th Edition. It was mandatory that the MIC values remained in the accepted range.

Candida spp. = experiment: Screening of antifungal activity at 256 µg/mL against twenty strains; format: cell-based; conditions: screening at 256 µg/mL
From the text: as §1
Antifungal susceptibility testing was performed according to Clinical and Laboratory Standards Institute M27, 4th Edition (CLSI standard M27, 4th Edition). Some modifications were applied for evaluation of the antifungal activity of EOs and terpenes. Initially, a screening was carried out to determine the antifungal activity of the EOs and of commercial terpenes. Stock concentrations of EOs and terpenes were prepared at 512 µg/mL and an inoculum of 2.5 × 10^3 CFU/mL of each yeast was prepared in RPMI 1640-MOPS (Sigma- Aldrich St. Louis, MO, USA). Thereafter, 100 µL of each stock solution of EOs or terpenes was dispensed in 96-well microdilution plates (Corning®, Costar®, NY, USA) and 100 µL of each yeast inoculum was added. […] MICs were visually determined at the lowest concentration that produced visual inhibition compared to the growth control. […] The results were expressed as geometric means (GM) and ranges. As an antifungal susceptibility testing control, the activity of ITC and AMB against the reference strains C. krusei ATCC 6258 and C. parapsilosis ATCC 22019 was evaluated in all experiments following the CLSI standard M27, 4th Edition. […]

Cytotoxicity, MTT assay = conditions: human, HaCaT keratinocyte cells
Experimental: Cells were cultured in Dulbecco’s Modified Eagle Medium (DMEM; Sigma-Aldrich, St. Louis, MO, USA) supplemented with 10% fetal bovine serum (Invitrogen, Carlsbad, CA, USA), 1% penicillin, streptomycin, and neomycin (Invitrogen, Carlsbad, CA, USA), and 1% L-glutamine (Invitrogen, Carlsbad, CA, USA) at 37 °C in a humidified atmosphere of 5% CO2. […] Afterwards, the culture medium was removed and 3-(4.5-dimethylthiazol-2-yl)-2.5-diphenyltetrazolium bromide (MTT) (Sigma-Aldrich, St. Louis, MO, USA) at 5 mg/mL was added at 37 °C for 2 h. Subsequently, DMSO was added to dissolve the formazan crystals. Finally, the absorbances were measured with a Multiskan SkyHigh Microplate Spectrophotometer (Thermo Fisher Scientific, Waltham, MA, USA) at λ = 570 nm. The CC50 values were obtained by linear regression analysis with concentration–response curves, which were performed with absorbance data using GraphPad Prism software (Prism 9.3.0, San Diego, CA, USA). The assays were conducted at two separate times in triplicate. The data were expressed as means.

[2] = system: C. tropicalis ATCC 200956; experiment: MIC, CLSI M27 broth microdilution; format: cell-based, Candida tropicalis; conditions: C. tropicalis ATCC 200956, EOs and terpenes
From the text: as §1, §2

C. auris Ca 17 = experiment: MIC, CLSI M27 broth microdilution; format: cell-based, Candida auris; conditions: Candidozyma auris, CA17; C. auris Ca 17; EOs and terpenes; 24 h; top concentration 256 µg/mL; read-out: GM MIC
From the text: as §1, §2

C. auris Ca 1 = experiment: MIC, CLSI M27 broth microdilution; format: cell-based, Candida auris; conditions: C. auris Ca 1, EOs and terpenes
From the text: as §1, §2

C. auris Ca 32 = experiment: MIC, CLSI M27 broth microdilution; format: cell-based, Candida auris; conditions: Candidozyma auris, CA32; C. auris Ca 32; EOs and terpenes; 24 h; top concentration 256 µg/mL; read-out: GM MIC
From the text: as §1, §2

C. auris Ca 45 = experiment: MIC, CLSI M27 broth microdilution; format: cell-based, Candida auris; conditions: Candidozyma auris, CA45; C. auris Ca 45; EOs and terpenes; 24 h; top concentration 256 µg/mL; read-out: GM MIC
From the text: as §1, §2

C. auris Ca 46 = experiment: MIC, CLSI M27 broth microdilution; format: cell-based, Candida auris; conditions: Candidozyma auris, CA46; C. auris Ca 46; EOs and terpenes; 24 h; top concentration 256 µg/mL; read-out: GM MIC
From the text: as §1, §2

C. auris Ca 9 = experiment: MIC, CLSI M27 broth microdilution; format: cell-based, Candida auris; conditions: Candidozyma auris, CA9; C. auris Ca 9; EOs and terpenes; 24 h; top concentration 256 µg/mL; read-out: GM MIC
From the text: as §1, §2

C. auris Ca 13 = experiment: MIC, CLSI M27 broth microdilution; format: cell-based, Candida auris; conditions: Candidozyma auris, CA13; C. auris Ca 13; EOs and terpenes; 24 h; top concentration 256 µg/mL; read-out: GM MIC
From the text: as §1, §2

C. auris Ca 41 = experiment: MIC, CLSI M27 broth microdilution; format: cell-based, Candida auris; conditions: Candidozyma auris, CA41; C. auris Ca 41; EOs and terpenes; 24 h; top concentration 256 µg/mL; read-out: GM MIC
From the text: as §1, §2

C. auris CDC B11903 [3] = experiment: MIC, CLSI M27 broth microdilution; format: cell-based, Candida auris; conditions: Candidozyma auris, CDCB11903; C. auris CDC B11903; EOs and terpenes; 24 h; top concentration 256 µg/mL; read-out: GM MIC
From the text: as §1, §2

C. auris CDC B11903 [4] = experiment: Time–kill assay; format: cell-based, Candida auris
Experimental: (§3) Time–kill assays with the L. origanoides (thymol + p-cymene) chemotype (Code 0018) EO, thymol, FLC, and AMB against C. albicans ATCC 10231, C. tropicalis ATCC 200956, and C. auris CDC B11903 were performed according to the protocol published by Klebser et al. with some modifications. […] Absorbance at λ = 490 nm was measured every 2 h with a Multiskan SkyHigh Microplate Spectrophotometer. AMB and FLC were included as fungicidal and fungistatic control drugs, respectively.

C. lusitaniae MUM 17.08 = experiment: MIC, CLSI M27 broth microdilution; format: cell-based, Candida lusitaniae; conditions: C. lusitaniae MUM 17.08, EOs and terpenes
From the text: as §1, §2

[5] = system: C. parapsilosis Synlab 406; experiment: MIC, CLSI M27 broth microdilution; format: cell-based, Candida parapsilosis; conditions: Lodderomyces parapsilosis, SYNLAB406; C. parapsilosis Synlab 406; EOs and terpenes; 24 h; top concentration 256 µg/mL; read-out: GM MIC
From the text: as §1, §2

C. auris = system: C. auris; design: method as in PMID 31980703; conditions: cited from earlier work
[6] = system: C. orthopsilosis MUM 17.13; experiment: MIC, CLSI M27 broth microdilution; format: cell-based, Candida orthopsilosis; conditions: Lodderomyces orthopsilosis, MUM17.13; C. orthopsilosis MUM 15.12 (Table 3); EOs and terpenes; 24 h; top concentration 256 µg/mL; read-out: GM MIC
From the text: as §1, §2

C. albicans ATCC 10231 = experiment: Time–kill assay; format: cell-based, Candida albicans; conditions: 1X and 2X MIC, 24 h
Experimental: as §3

C. krusei ATCC 6258 = experiment: MIC, CLSI M27 broth microdilution; format: cell-based, Candida krusei; conditions: C. krusei ATCC 6258, EOs and terpenes
From the text: as §1, §2

[7] = system: C. tropicalis ATCC 200956; experiment: Time–kill assay; format: cell-based, Candida tropicalis; conditions: 1X and 2X MIC, 24 h
Experimental: as §3

MIC [1]: 128 µg/mL (≈ 852 µM)
Range MIC [2]: 64 to 128 µg/mL
MIC ([2]; Candida tropicalis, ATCC200956, 24 h, top concentration 256 µg/mL, read-out: GM MIC): 90.5 µg/mL (≈ 602 µM)
MIC (C. auris Ca 17): 64 µg/mL (≈ 426 µM)
Range MIC (C. auris Ca 1): 128 to 256 µg/mL
MIC (C. auris Ca 1; Candidozyma auris, CA1, 24 h, top concentration 256 µg/mL, read-out: GM MIC): 181 µg/mL (≈ 1200 µM)
MIC (C. auris Ca 32): 64 µg/mL (≈ 426 µM)
MIC (C. auris Ca 45): 64 µg/mL (≈ 426 µM)
MIC (C. auris Ca 46): 64 µg/mL (≈ 426 µM)
MIC (C. auris Ca 9): 128 µg/mL (≈ 852 µM)
MIC (C. auris Ca 13): 128 µg/mL (≈ 852 µM)
MIC (C. auris Ca 41): 64 µg/mL (≈ 426 µM)
MIC (C. auris CDC B11903 [3]): 64 µg/mL (≈ 426 µM)
Range MIC (C. lusitaniae MUM 17.08): 64 to 128 µg/mL
MIC (C. lusitaniae MUM 17.08; Clavispora lusitaniae, MUM17.08, 24 h, top concentration 256 µg/mL, read-out: GM MIC): 90.5 µg/mL (≈ 602 µM)
MIC [5]: 64 µg/mL (≈ 426 µM)
MIC [6]: 128 µg/mL (≈ 852 µM)
Range MIC (C. krusei ATCC 6258): 128 to 256 µg/mL
MIC (C. krusei ATCC 6258; Pichia kudriavzevii, ATCC6258, 24 h, top concentration 256 µg/mL, read-out: GM MIC): 181 µg/mL (≈ 1200 µM)
SMILES: Cc1ccc(C(C)C)c(O)c1 [Thymol, thymol]
antifungal activity in screening (Candida spp.): active against all tested Candida spp.
CC50 at 24 h (Cytotoxicity, MTT assay): 428 µg/mL (≈ 2850 µM)
effect on growth in time–kill assay (C. auris CDC B11903 [4]; 0.5, 1 and 2X MIC, 24 h): not affected; also recorded: did not show fungicidal activity
lag-phase in time–kill assay (C. auris CDC B11903 [4]; 2X MIC): extended lag-phase
MIC Range (C. auris): 156 to 625 µg/mL
effect in time–kill assay (C. albicans ATCC 10231): fungicidal
effect in time–kill assay [7]: fungicidal

Source: publication PMC9606955, “In Vitro Activity of Essential Oils Distilled from Colombian Plants against Candida auris and Other Candida Species with Different Antifungal Susceptibility Profiles” (Molecules, 2022)
